Tests used:
[1] = biological target: Sodium-dependent dopamine transporter (Rattus norvegicus) (UniProt P23977); experiment: Ratio of IC50 for [3H]DA uptake to and dopamine transporter binding
[2] = biological target: Monoamine transporters; Norepininephrine & dopamine (Rattus norvegicus) (UniProt P23977+Q9WTR4); experiment: Relative binding affinity for norepinephrine and dopamine transporter, ratio of IC50; format: protein assay
[3] = biological target: Monoamine transporters; serotonin & dopamine (Rattus norvegicus) (UniProt P31652+P23977); experiment: Relative binding affinity for serotonin and dopamine transporters, ratio of IC50; format: protein assay
[4] = biological target: T1, Sodium-dependent dopamine transporter (Rattus norvegicus, UniProt P23977); experiment: Inhibition of [3H]WIN-35428 binding to dopamine transporter of rat striatum; format: tissue-based
[5] = biological target: Norepinephrine transporter (Rattus norvegicus, UniProt Q9WTR4); experiment: Inhibition of [3H]nisoxetine binding to norepinephrine transporter of rat cerebral cortex; format: tissue-based
[6] = biological target: Sodium-dependent serotonin transporter (Rattus norvegicus, UniProt P31652); experiment: Inhibition of [3H]citalopram binding to serotonin transporter of rat cerebral cortex; format: tissue-based
[7] = biological target: T1, Sodium-dependent dopamine transporter; experiment: Concentration required to inhibit [3H]DA (dopamine) uptake into rat striatal synaptosomes; format: functional, subcellular, Brain

Chain of Monoamine transporters; serotonin & dopamine (Rattus norvegicus) (P23977 whole entry, looked up): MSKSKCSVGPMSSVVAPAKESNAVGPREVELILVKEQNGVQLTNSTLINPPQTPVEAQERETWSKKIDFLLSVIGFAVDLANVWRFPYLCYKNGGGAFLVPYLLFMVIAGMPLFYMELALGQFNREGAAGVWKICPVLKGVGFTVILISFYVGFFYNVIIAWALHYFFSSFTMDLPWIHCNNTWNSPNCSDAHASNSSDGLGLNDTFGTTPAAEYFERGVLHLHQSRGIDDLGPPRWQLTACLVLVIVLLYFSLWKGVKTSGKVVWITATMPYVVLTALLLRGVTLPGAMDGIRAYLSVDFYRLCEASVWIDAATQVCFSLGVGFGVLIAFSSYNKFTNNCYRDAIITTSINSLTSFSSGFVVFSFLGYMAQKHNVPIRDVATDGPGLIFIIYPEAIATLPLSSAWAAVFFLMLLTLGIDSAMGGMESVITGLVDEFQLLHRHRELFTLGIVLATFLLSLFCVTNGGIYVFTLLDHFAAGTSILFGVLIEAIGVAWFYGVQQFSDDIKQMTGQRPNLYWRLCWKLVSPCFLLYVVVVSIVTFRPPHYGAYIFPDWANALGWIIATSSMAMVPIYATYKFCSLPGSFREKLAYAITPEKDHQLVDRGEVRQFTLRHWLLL
Chain of Monoamine transporters; serotonin & dopamine (Rattus norvegicus) (P31652 whole entry, looked up): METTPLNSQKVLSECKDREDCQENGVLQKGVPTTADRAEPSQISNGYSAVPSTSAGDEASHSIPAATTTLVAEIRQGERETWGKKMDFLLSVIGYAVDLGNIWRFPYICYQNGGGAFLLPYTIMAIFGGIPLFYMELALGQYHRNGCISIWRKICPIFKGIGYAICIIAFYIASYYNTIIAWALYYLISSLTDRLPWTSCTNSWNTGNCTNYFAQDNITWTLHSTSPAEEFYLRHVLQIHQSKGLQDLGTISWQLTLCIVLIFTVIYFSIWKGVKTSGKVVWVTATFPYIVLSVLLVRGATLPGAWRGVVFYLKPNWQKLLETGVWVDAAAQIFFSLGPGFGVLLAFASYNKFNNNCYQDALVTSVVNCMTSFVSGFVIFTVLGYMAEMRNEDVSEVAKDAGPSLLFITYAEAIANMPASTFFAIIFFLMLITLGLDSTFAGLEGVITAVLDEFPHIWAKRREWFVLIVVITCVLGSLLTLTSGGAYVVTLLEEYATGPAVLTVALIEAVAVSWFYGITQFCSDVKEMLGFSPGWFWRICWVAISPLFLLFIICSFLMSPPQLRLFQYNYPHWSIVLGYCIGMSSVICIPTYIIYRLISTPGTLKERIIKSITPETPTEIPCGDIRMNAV
T1 sequence (P23977 whole entry): as the sequence (P23977 whole entry, looked up) above
Chain of Sodium-dependent dopamine transporter (Rattus norvegicus) (P23977 whole entry): as the sequence (P23977 whole entry, looked up) above
Chain of Sodium-dependent serotonin transporter (P31652 whole entry): as the sequence (P31652 whole entry, looked up) above
Chain of Norepinephrine transporter (Q9WTR4 whole entry): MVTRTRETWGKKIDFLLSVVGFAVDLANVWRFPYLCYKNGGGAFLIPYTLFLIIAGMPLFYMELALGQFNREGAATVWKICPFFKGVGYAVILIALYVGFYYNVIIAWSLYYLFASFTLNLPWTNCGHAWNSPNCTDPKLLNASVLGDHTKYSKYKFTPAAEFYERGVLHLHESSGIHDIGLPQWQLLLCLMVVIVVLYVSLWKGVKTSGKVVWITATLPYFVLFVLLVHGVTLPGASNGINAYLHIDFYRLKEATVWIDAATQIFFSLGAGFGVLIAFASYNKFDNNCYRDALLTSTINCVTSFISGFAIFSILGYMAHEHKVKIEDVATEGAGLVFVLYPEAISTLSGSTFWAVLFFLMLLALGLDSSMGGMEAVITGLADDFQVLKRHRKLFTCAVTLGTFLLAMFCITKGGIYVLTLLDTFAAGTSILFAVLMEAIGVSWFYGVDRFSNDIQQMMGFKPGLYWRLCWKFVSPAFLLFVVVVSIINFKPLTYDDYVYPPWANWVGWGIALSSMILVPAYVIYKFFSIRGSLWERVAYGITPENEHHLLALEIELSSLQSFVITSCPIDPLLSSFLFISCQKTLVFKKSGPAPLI

SMILES | Selectivity [1] | Selectivity [2] | Selectivity [3] | IC50 [4] [nM] | IC50 [5] [nM] | IC50 [6] [nM] | IC50 [7] [nM]
N#Cc1ccc(CNC2CCC(C(c3ccccc3)c3ccccc3)NC2)cc1 (stereo unspecified) | 0.8 | 148 | 38 | 11.2 | 1670 | 434 | 9.1
Fc1ccc(CNC2CCC(C(c3ccccc3)c3ccccc3)N(Cc3ccc(F)cc3)C2)cc1 (stereo unspecified) | – | 12 | 10 | 1240 | 12600 | 18900 | –
Fc1ccc(CCN2CCN3CC2CCC3C(c2ccccc2)c2ccccc2)cc1 (stereo unspecified) | – | > 18 | 4 | 565 | > 10000 | 2550 | –
O=S(=O)(Nc1ccc(CN2CCN3CC2CCC3C(c2ccccc2)c2ccccc2)cc1)c1ccc(Cl)cc1 (stereo unspecified) | – | 9 | 11 | 371 | 3480 | 4130 | –
CN1CCN2CC1CCC2C(c1ccccc1)c1ccccc1 (stereo unspecified) | – | 13 | 33 | 4710 | 60100 | 157000 | –
CN(Cc1ccc(F)cc1)C1CCC(C(c2ccccc2)c2ccccc2)N(C)C1 (stereo unspecified) | – | 31 | 10 | 225 | 7000 | 2360 | –
COc1ccc(CNC2CCC(C(c3ccccc3)c3ccccc3)NC2)cc1 (stereo unspecified) | 0.85 | 23 | 22 | 47.5 | 1110 | 1040 | 40.5
COc1ccc(CN2CCN3C[C@@H]2CC[C@H]3C(c2ccccc2)c2ccccc2)cc1 | 0.8 | > 444 | 384 | 22.5 | > 10000 | 8650 | 18.4
Fc1ccc(CNC2CCC(C(c3ccccc3)c3ccccc3)NC2)cc1 (stereo unspecified) | – | – | – | 33.8 | 1420 | – | 53.8
COc1ccc(CN2CCN3C[C@H]2CC[C@@H]3C(c2ccccc2)c2ccccc2)cc1 | 0.8 | > 30 | 20 | 329 | > 10000 | 6630 | 269

Reference: ChEMBL document CHEMBL1137217, “Further structurally constrained analogues of cis-(6-benzhydrylpiperidin-3-yl)benzylamine with elucidation of bioactive conformation: discovery of 1,4-diazabicyclo[3.3.1]nonane derivatives and evaluation of their biological properties for the monoamine transporters” (J Med Chem, 2004)
